Experimental data published in patent publication US20260098013A1, “Stereoisomer Conjugates of Dextrorphan” (priority 2024, published 2026).

Details: rat, in vivo; for AUC0-6 h / Cmax / Tmax: 6 mg/kg

Row | Structure (SMILES) | Exposure Ratio AUC (Sprague-Dawley, po) [%] | Exposure Ratio Cmax (Sprague-Dawley, po) [%] | AUC0-6 h (Sprague-Dawley, po) [µg·h/mL] | Cmax (Sprague-Dawley, po) [µg/mL] | Tmax (Sprague-Dawley, po) [h] | AUC compared to dextrorphan tartrate (po) | Cmax compared to dextrorphan tartrate (po) | oral dextrorphan bioavailability / exposure compared to dextrorphan tartrate (po) | fold increase in AUC0-6h compared to dextrorphan tartrate (Sprague-Dawley, po) | fold increase in Cmax compared to dextrorphan tartrate (Sprague-Dawley, po) [fold] | oral bioavailability compared to the other diastereomer of the same prodrug (po) | dextrorphan AUC0-6h, times higher compared to dextrorphan tartrate (po) | dextrorphan Cmax, times higher compared to dextrorphan tartrate (po) | steadiness of plasma concentration | time to reach maximum plasma concentration after administration (Sprague-Dawley, po)
1 | C[C@@H](N)C(=O)N[C@H](C)C(=O)Oc1ccc2c(c1)[C@]13CCCC[C@@H]1C(C2)N(C)CC3 [3-(D-Ala-D-Ala)-dextrorphan] | 59 | 43 | 0.0247 | 0.0096 | 2.1 | lower | smaller | lower | – | – | – | – | – | – | –
2 | CC(C)[C@@H](NC(=O)[C@@H](C)N)C(=O)Oc1ccc2c(c1)[C@]13CCCC[C@@H]1C(C2)N(C)CC3 [3-(D-Ala-D-Val)-dextrorphan] | – | – | – | – | – | larger | larger | superior | – | – | – | – | – | – | –
3 | CC(C)[C@H](NC(=O)[C@H](N)C(C)C)C(=O)Oc1ccc2c(c1)[C@]13CCCC[C@@H]1C(C2)N(C)CC3 [3-(D-Val-D-Val)-dextrorphan] | – | – | – | – | – | larger | larger | – | about 4.5 fold | ~2.7 | significantly increased | – | – | – | –
4 | C[C@H](N)C(=O)N[C@@H](C)C(=O)Oc1ccc2c(c1)[C@]13CCCC[C@@H]1C(C2)N(C)CC3 [3-(L-Ala-L-Ala)-dextrorphan] | 147 | 217 | 0.0883 | 0.0873 | 0.8 | larger | larger | – | – | – | – | about 1.5 times | over 2 times | – | –
5 | CC(C)[C@H](N)C(=O)N[C@H](C(=O)Oc1ccc2c(c1)[C@]13CCCC[C@@H]1C(C2)N(C)CC3)C(C)C [3-(L-Val-L-Val)-dextrorphan] | 85 | 128 | 0.0785 | 0.0989 | 0.5 | slightly lower | – | good oral bioavailability | – | – | – | – | – | – | –
6 | CC(=O)N[C@H](C)C(=O)Oc1ccc2c(c1)[C@]13CCCC[C@@H]1C(C2)N(C)CC3 [3-(N-Ac-D-Ala)-dextrorphan] | – | 32 | 0.0308 | 0.0165 | 1.6 | much smaller | much smaller | – | – | – | – | – | – | steadier | –
7 | CC(=O)N[C@H](CCC(=O)O)C(=O)Oc1ccc2c(c1)[C@]13CCCC[C@@H]1C(C2)N(C)CC3 [3-(N-Ac-D-Glu)-dextrorphan] | 30 | 10 | 0.0127 | 0.0035 | 2.4 | much smaller | much smaller | – | – | – | – | – | – | steadier | around 2 hours
8 | CC[C@@H](C)[C@@H](NC(C)=O)C(=O)Oc1ccc2c(c1)[C@]13CCCC[C@@H]1C(C2)N(C)CC3 [3-(N-Ac-D-Ile)-dextrorphan] | 880 | 672 | 0.2946 | 0.0819 | 2.9 | much smaller | much smaller | – | – | – | – | > 8 times | over 6 times | – | –
9 | CC(=O)N[C@H](Cc1ccccc1)C(=O)Oc1ccc2c(c1)[C@]13CCCC[C@@H]1[C@H](C2)N(C)CC3 [3-(N-Ac-D-Phe)-dextrorphan] | 30 | 11 | 0.0191 | 0.0047 | 5.0 | much smaller | much smaller | – | – | – | – | – | – | much steadier | –
10 | CC(=O)N[C@@H](C(=O)Oc1ccc2c(c1)[C@]13CCCC[C@@H]1C(C2)N(C)CC3)C(C)C [3-(N-Ac-D-Val)-dextrorphan] | 556 | 180 | 0.4674 | 0.1277 | 3.0 | higher | higher | – | – | – | – | more than 5 times | about 1.8 times | – | –
11 | CC(=O)N[C@@H](C)C(=O)Oc1ccc2c(c1)[C@]13CCCC[C@@H]1C(C2)N(C)CC3 [3-(N-Ac-L-Ala)-dextrorphan] | 40 | 35 | 0.0296 | 0.0182 | 0.7 | much smaller | much smaller | decreasing bioavailability | – | – | – | – | – | steadier | –
12 | CC(=O)N[C@@H](CCC(=O)O)C(=O)Oc1ccc2c(c1)[C@]13CCCC[C@@H]1C(C2)N(C)CC3 [3-(N-Ac-L-Glu)-dextrorphan] | 43 | 14 | 0.0184 | 0.0048 | 1.8 | much smaller | much smaller | – | – | – | – | – | – | steadier | around 2 hours
13 | CC[C@H](C)[C@H](NC(C)=O)C(=O)Oc1ccc2c(c1)[C@]13CCCC[C@@H]1C(C2)N(C)CC3 [3-(N-Ac-L-Ile)-dextrorphan] | – | – | 0.0274 | 0.0139 | 2.2 | – | – | – | – | – | – | – | – | – | –
14 | CC(=O)N[C@@H](Cc1ccccc1)C(=O)Oc1ccc2c(c1)[C@]13CCCC[C@@H]1[C@H](C2)N(C)CC3 [3-(N-Ac-L-Phe)-dextrorphan] | 44 | 18 | 0.0277 | 0.008 | 2.8 | much smaller | much smaller | – | – | – | – | – | – | much steadier | –
15 | CC(=O)N[C@H](C(=O)Oc1ccc2c(c1)[C@]13CCCC[C@@H]1C(C2)N(C)CC3)C(C)C [3-(N-Ac-L-Val)-dextrorphan] | 37 | – | 0.0312 | 0.0126 | 2.8 | – | lower | – | – | – | – | – | – | – | –
16 | CN1CC[C@]23CCCC[C@H]2[C@H]1Cc1ccc(O)cc13 [Dextrorphan, (+)-17-methylmorphinan-3-ol] | – | – | – | – | – | – | – | – | – | – | – | – | – | – | approximately 30 minutes
